Earlier results, collected in patent US20250049743A1, “METHOD OF PRODUCING AN ORAL OSMOTIC PHARMACEUTICAL DELIVERY SYSTEM AND A PHARMACEUTICAL BATCH PRODUCED USING THE SAME” (United Therapeutics Corporation, priority 2023, published 2025).

Conditions: treprostinil as the free acid

absolute oral bioavailability: less than 10%
Compound: CCCCC[C@H](O)CC[C@@H]1[C@H]2Cc3cccc(OCC(=O)O)c3C[C@H]2C[C@H]1O [treprostinil]
